Results: CN109762015A, “一种阿维菌素B2a磷酸化修饰物及其制备方法和应用” (HEBEI MEIHE PHARMACEUTICAL Co Ltd, priority 2019, dated 2019)

Experiments:
[1] = system: root-knot nematode of watermelon (西瓜根结线虫); assay: Field trial: control of watermelon root-knot nematode (Example 7); type: in vivo; conditions: 0.25 g/plant, hole application at transplanting; assessed 2 d before harvest, five-point sampling, 10 plants per field
[2] = system: other diseases and pests and non-target organisms (其他病虫害及非靶标生物); assay: Safety evaluation: effect on other diseases/pests and non-target organisms (Example 7); type: in vivo; conditions: 0.25 g/plant, hole application at transplanting
[3] = system: watermelon (西瓜); assay: Watermelon yield after treatment (Example 8); type: in vivo; conditions: 0.25 g/plant at transplanting
[4] = system: plants (植株); conditions: background statement; cited from earlier work

## CC[C@H](C)[C@H]1O[C@@]2(C[C@@H]3C[C@@H](C/C=C(\C)[C@@H](O[C@H]4C[C@H](OC)[C@@H](O[C@H]5C[C@H](OC)[C@@H](O)[C@H](C)O5)[C@H](C)O4)[C@@H](C)/C=C/C=C4\CO[C@@H]5[C@H](O)C(C)=C[C@@H](C(=O)O3)[C@]45O)O2)C[C@H](O)[C@@H]1C [阿维菌素B2a]
[1]
  control effect: 83.32%
[2]
  effect on other diseases/pests and non-target organisms: 无不良影响
[3]; 3 watermelons per field, blank field 5.98
  single fruit weight: 7.01 kg
[3]; converted from weighing 3 watermelons per field, blank field 38967.4
  converted yield: 47784.9 kg·hm-2
[3]; versus blank field
  growth rate relative to blank field (yield increase): 22.62%
[4]
  phytotoxicity in individual plants: 会使个别植株出现黄化、烧根等现象
